Laboratory results taken from publication PMC11775380, “Discovery of Novel Nav1.7-Selective Inhibitors with the 1H-Indole-3-Propionamide Scaffold for Effective Pain Relief” (Research, 2025).

target: T1, human Nav1.7 (hNav1.7) (Homo sapiens, UniProt Q15858); experiment: Whole-cell patch-clamp inhibition of Nav1.7 currents in transfected HEK293T cells; assay type: cell-based; details: HEK-293T; 10 μM compound; inhibition rate of Nav1.7; read-out: Inhibitory activity (10 μM)
T1 construct: expressed in transfected cells; host or cells: HEK293T
T1 sequence (Q15858 whole entry): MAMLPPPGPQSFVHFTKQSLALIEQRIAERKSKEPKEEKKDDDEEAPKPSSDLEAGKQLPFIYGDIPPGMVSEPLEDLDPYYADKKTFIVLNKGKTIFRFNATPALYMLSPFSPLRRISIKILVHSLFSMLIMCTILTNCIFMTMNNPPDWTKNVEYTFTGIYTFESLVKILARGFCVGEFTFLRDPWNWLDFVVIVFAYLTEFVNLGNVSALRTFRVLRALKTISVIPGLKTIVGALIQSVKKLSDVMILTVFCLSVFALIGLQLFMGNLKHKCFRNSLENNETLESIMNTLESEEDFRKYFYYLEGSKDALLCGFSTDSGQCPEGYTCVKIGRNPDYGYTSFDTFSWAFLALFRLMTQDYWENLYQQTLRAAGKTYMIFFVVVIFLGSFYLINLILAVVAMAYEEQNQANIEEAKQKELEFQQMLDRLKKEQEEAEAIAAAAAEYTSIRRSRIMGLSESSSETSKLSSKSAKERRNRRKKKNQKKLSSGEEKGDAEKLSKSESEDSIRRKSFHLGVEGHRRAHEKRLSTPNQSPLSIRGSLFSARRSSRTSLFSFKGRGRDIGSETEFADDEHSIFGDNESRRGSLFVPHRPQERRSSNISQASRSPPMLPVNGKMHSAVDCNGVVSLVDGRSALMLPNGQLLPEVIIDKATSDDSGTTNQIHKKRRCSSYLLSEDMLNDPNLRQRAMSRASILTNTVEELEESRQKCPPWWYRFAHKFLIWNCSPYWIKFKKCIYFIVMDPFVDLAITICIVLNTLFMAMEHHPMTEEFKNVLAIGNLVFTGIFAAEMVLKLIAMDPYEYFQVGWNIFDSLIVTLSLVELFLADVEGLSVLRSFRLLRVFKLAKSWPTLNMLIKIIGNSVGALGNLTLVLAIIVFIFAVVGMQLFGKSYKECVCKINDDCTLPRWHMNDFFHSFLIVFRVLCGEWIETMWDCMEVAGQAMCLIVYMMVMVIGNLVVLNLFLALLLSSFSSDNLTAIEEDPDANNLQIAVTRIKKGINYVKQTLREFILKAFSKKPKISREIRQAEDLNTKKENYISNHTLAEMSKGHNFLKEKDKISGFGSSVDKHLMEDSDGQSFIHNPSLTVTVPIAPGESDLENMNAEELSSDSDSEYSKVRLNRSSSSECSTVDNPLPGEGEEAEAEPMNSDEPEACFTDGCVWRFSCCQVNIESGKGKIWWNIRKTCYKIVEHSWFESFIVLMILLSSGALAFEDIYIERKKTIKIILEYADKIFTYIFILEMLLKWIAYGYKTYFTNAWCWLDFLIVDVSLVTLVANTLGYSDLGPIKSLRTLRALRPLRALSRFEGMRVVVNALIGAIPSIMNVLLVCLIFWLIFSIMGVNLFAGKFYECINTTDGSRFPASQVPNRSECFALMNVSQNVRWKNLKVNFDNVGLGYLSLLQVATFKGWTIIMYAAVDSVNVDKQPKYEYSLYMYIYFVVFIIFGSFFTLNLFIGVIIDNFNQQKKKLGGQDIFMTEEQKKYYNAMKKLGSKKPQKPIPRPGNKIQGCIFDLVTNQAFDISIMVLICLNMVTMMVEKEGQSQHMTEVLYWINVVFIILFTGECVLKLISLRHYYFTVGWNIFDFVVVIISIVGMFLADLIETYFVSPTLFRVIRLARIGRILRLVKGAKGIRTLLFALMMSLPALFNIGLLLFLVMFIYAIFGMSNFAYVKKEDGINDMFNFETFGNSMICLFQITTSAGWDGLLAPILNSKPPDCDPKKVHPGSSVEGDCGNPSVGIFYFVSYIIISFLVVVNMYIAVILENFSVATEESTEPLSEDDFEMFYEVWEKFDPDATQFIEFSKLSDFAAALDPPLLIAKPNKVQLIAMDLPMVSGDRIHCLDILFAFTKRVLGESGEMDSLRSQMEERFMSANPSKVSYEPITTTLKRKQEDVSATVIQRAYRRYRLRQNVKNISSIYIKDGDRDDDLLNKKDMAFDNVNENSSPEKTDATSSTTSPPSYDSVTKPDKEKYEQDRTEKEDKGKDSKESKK
T1 sequence (Q07699 19-218 partner): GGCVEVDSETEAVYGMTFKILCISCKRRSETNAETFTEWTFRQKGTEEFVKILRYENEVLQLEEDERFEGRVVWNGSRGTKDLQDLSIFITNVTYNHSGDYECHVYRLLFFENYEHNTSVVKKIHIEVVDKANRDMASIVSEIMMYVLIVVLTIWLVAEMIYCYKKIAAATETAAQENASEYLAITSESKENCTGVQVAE
T1 sequence (O60939 30-215 partner): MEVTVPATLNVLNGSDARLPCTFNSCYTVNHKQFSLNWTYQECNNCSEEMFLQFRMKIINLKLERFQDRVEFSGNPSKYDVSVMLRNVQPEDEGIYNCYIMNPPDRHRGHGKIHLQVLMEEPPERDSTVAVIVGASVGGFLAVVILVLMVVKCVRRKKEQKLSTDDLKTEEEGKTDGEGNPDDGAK
Protocol: Human embryonic kidney (HEK) 293T (ATCC CRL-3216) and ND7/23 cells (National Collection of Authenticated Cell Cultures SCSP-5026) were cultured under standard conditions (5% CO2, 37 °C) in Dulbecco’s modified Eagle’s medium (DMEM) containing 10% fetal bovine serum and 1% penicillin-streptomycin solution(all from Gibco, Thermo Fisher Scientific, Waltham, MA, USA). When the cells reached 70% to 90% confluence, human Nav1.2 (hNav1.2), human Nav1.3 (hNav1.3), human Nav1.4 (hNav1.4), human Nav1.5 (hNav1.5), and mouse Nav1.6 (mNav1.6) channel plasmids were cotransfected with enhanced green fluorescent protein (eGFP) into HEK293T cells. Additionally, plasmids expressing β1 and β2 subunits tagged with eGFP were cotransfected with the human Nav1.7 (hNav1.7) channel into HEK293T cells. Human Nav1.8 (hNav1.8) was transiently transfected into ND7/23 cells, along with eGFP, using Lipofectamine 2000 (Invitrogen), adhering strictly to the manufacturer’s protocol. For manual patch-clamp experiments, the cells were plated onto glass coverslips and used within 20 to 48 h of transfection.
Whole-cell patch-clamp recordings were conducted at 25 ± 2 °C, utilizing an EPC 10USB patch-clamp amplifier (HEKA Elektronik, Lambrecht, Germany). Pipettes, with access resistance between 2.0 and 3.0 MΩ, were pulled from borosilicate glass capillary tubes using a 2-step vertical microelectrode puller (PC-10, Narishige Group, Tokyo, Japan). Voltage-clamp recordings were obtained with PatchMaster software v2 × 73 (HEKA Elektronik) 5 min after establishing whole-cell configuration, sampled at 20 kHz, and filtered at 5 kHz. To minimize voltage errors, 80% series resistance compensation was applied. Pipettes were filled with 140 mM CsF, 10 mM NaCl, 1 mM EGTA, and 10 mM HEPES (pH=7.4, adjusted with CsOH). The external solution contained 140 mM NaCl, 2 mM CaCl2, 1 mM MgCl2, 5 mM KCl, 10 mM HEPES, and 10 mM glucose (pH=7.4, adjusted with NaOH). IC50 values were determined in HEK293T or ND7/23 cell lines by voltage clamping at −80 mV, followed by stepping to the V1/2 of inactivation for 8 s to facilitate compound binding.

Point of comparison: `NC(=O)CC(c1ccc(C(F)(F)F)cc1)c1cn(Cc2ccc(F)cc2)c2ccccc12` (stereo not drawn) [B4, C1=CC=C2C(=C1)C(=CN2CC3=CC=C(C=C3)F)C(CC(=O)N)C4=CC=C(C=C4)C(F)(F)F], inhibition at 10 µM 13.4%. Against it:
- CC(C)CNC(=O)CC(c1ccc(C(F)(F)F)cc1)c1cn(Cc2ccccc2)c2ccccc12 (stereo not drawn) [B34, CC(C)CNC(=O)CC(C1=CC=C(C=C1)C(F)(F)F)C2=CN(C3=CC=CC=C32)CC4=CC=CC=C4] — the same, 13.4%
- COc1ccc(N2CC(C(=O)NC3CCCc4c3[nH]c3ccccc43)CC2=O)c(OC)c1 (stereo not drawn) [A8, COC1=CC(=C(C=C1)N2CC(CC2=O)C(=O)NC3CCCC4=C3NC5=CC=CC=C45)OC] — lower, 12.1%
- COCCNC(=O)CC(c1ccc(OCc2ccccc2)c(OC)c1)c1cn(Cc2ccc(F)cc2)c2ccccc12 (stereo not drawn) [A5, COCCNC(=O)CC(C1=CC(=C(C=C1)OCC2=CC=CC=C2)OC)C3=CN(C4=CC=CC=C43)CC5=CC=C(C=C5)F] — lower, 3.57%
- O=C(CC(c1cccc(C(F)(F)F)c1)c1cn(Cc2ccc(F)cc2)c2ccccc12)NCCc1ccccn1 (stereo not drawn) [B33, C1=CC=C2C(=C1)C(=CN2CC3=CC=C(C=C3)F)C(CC(=O)NCCC4=CC=CC=N4)C5=CC(=CC=C5)C(F)(F)F] — higher, 19.8%
- Brc1ccc(-c2nc(-c3ccc(Oc4ccccc4)cc3)c(-c3ccc(Oc4ccccc4)cc3)[nH]2)cc1 [A9, C1=CC=C(C=C1)OC2=CC=C(C=C2)C3=C(N=C(N3)C4=CC=C(C=C4)Br)C5=CC=C(C=C5)OC6=CC=CC=C6] — lower, 4.44%
- O=C(CC(c1ccc(F)cc1)c1cn(Cc2ccc(F)cc2)c2ccccc12)NCCc1ccccn1 (stereo not drawn) [B19, C1=CC=C2C(=C1)C(=CN2CC3=CC=C(C=C3)F)C(CC(=O)NCCC4=CC=CC=N4)C5=CC=C(C=C5)F] — higher, 22.9%
- O=C(CN(C(=O)c1ccc(Cl)cc1)C1CC1)Nc1nc(-c2ccccc2)cn1-c1ccccc1 [A4, C1CC1N(CC(=O)NC2=NC(=CN2C3=CC=CC=C3)C4=CC=CC=C4)C(=O)C5=CC=C(C=C5)Cl] — higher, 76.4%
- Cc1ccc(Cn2cc(C(CC(=O)NCCc3ccccn3)c3ccc(F)cc3)c3ccccc32)cc1 (stereo not drawn) [B18, CC1=CC=C(C=C1)CN2C=C(C3=CC=CC=C32)C(CC(=O)NCCC4=CC=CC=N4)C5=CC=C(C=C5)F] — higher, 13.7%
- O=C(CSc1nc(=O)n(Cc2cccnc2)c2c1CCC2)NCc1ccc(F)cc1 [A1, C1CC2=C(C1)N(C(=O)N=C2SCC(=O)NCC3=CC=C(C=C3)F)CC4=CN=CC=C4] — lower, -0.67%
- COc1ccc(Cn2cc(C(CC(=O)NCCc3ccccn3)c3cc(C)ccc3F)c3ccccc32)cc1 (stereo not drawn) [B12, CC1=CC(=C(C=C1)F)C(CC(=O)NCCC2=CC=CC=N2)C3=CN(C4=CC=CC=C43)CC5=CC=C(C=C5)OC] — lower, 4.98%
- O=C(CC(c1ccc(C(F)(F)F)cc1)c1cn(Cc2ccccc2)c2ccccc12)NCCc1ccccn1 (stereo not drawn) [B32, C1=CC=C(C=C1)CN2C=C(C3=CC=CC=C32)C(CC(=O)NCCC4=CC=CC=N4)C5=CC=C(C=C5)C(F)(F)F] — higher, 16.6%
- Cc1ccc(Cn2cc(C(CC(=O)NC3CCCCC3)c3ccc(F)cc3)c3ccccc32)cc1 (stereo not drawn) [B9, CC1=CC=C(C=C1)CN2C=C(C3=CC=CC=C32)C(CC(=O)NC4CCCCC4)C5=CC=C(C=C5)F] — lower, 6.85%
- COc1cc(OC)cc(C(CC(=O)NCCc2ccccn2)c2cn(Cc3ccc(F)cc3)c3ccccc23)c1 (stereo not drawn) [B26, COC1=CC(=CC(=C1)C(CC(=O)NCCC2=CC=CC=N2)C3=CN(C4=CC=CC=C43)CC5=CC=C(C=C5)F)OC] — higher, 26.1%
- O=C(CC(c1ccc(C(F)(F)F)cc1)c1cn(Cc2ccc(F)cc2)c2ccccc12)NCCN1CCOCC1 (stereo not drawn) [B24, C1COCCN1CCNC(=O)CC(C2=CC=C(C=C2)C(F)(F)F)C3=CN(C4=CC=CC=C43)CC5=CC=C(C=C5)F] — higher, 16%
- Cn1cc(C(CC(=O)NCCc2ccccn2)c2cccc(C(F)(F)F)c2)c2ccccc21 (stereo not drawn) [B14, CN1C=C(C2=CC=CC=C21)C(CC(=O)NCCC3=CC=CC=N3)C4=CC(=CC=C4)C(F)(F)F] — higher, 24.8%
- O=C(CC(c1cccc(C(F)(F)F)c1)c1cn(Cc2ccc(F)cc2)c2ccccc12)NCc1ccncc1 (stereo not drawn) [B35, C1=CC=C2C(=C1)C(=CN2CC3=CC=C(C=C3)F)C(CC(=O)NCC4=CC=NC=C4)C5=CC(=CC=C5)C(F)(F)F] — higher, 15.6%
- O=S(=O)(c1ccc(F)cc1)N(c1ccc2c(c1)OCO2)C1CCN(Cc2cccnc2)CC1 [B31, C1CN(CCC1N(C2=CC3=C(C=C2)OCO3)S(=O)(=O)C4=CC=C(C=C4)F)CC5=CN=CC=C5] — higher, 16%
- O=C(CC(c1ccc(F)cc1)c1cn(Cc2ccccc2)c2ccccc12)NCCc1ccc(Cl)cc1Cl (stereo not drawn) [B1, C1=CC=C(C=C1)CN2C=C(C3=CC=CC=C32)C(CC(=O)NCCC4=C(C=C(C=C4)Cl)Cl)C5=CC=C(C=C5)F] — lower, 6.13%
- CC(=O)N1CCc2nc3sc(C(=O)Nc4cccc(C#N)c4)c(N)c3c(C(F)(F)F)c2C1 [A12, CC(=O)N1CCC2=C(C1)C(=C3C(=C(SC3=N2)C(=O)NC4=CC=CC(=C4)C#N)N)C(F)(F)F] — lower, 9.32%
- O=C(CC(c1cccc(Oc2ccccc2)c1)c1cn(Cc2ccc(F)cc2)c2ccccc12)NCCc1ccccn1 (stereo not drawn) [B28, C1=CC=C(C=C1)OC2=CC=CC(=C2)C(CC(=O)NCCC3=CC=CC=N3)C4=CN(C5=CC=CC=C54)CC6=CC=C(C=C6)F] — higher, 29.2%
- O=C(CC(c1ccc(F)cc1)c1cn(Cc2ccccc2)c2ccccc12)NCc1ccccn1 (stereo not drawn) [B2, C1=CC=C(C=C1)CN2C=C(C3=CC=CC=C32)C(CC(=O)NCC4=CC=CC=N4)C5=CC=C(C=C5)F] — lower, 11.5%
- CCOc1ccc(C2N(c3ccc(Cl)c(Cl)c3)N=C(C(C)=O)N2c2ccc(N3CCN(C(C)=O)CC3)cc2)cc1 (stereo not drawn) [A13, CCOC1=CC=C(C=C1)C2N(C(=NN2C3=CC(=C(C=C3)Cl)Cl)C(=O)C)C4=CC=C(C=C4)N5CCN(CC5)C(=O)C] — higher, 15.8%
- CS(=O)(=O)c1ccc2nc(NC(=O)Nc3ccc(Cl)c(Cl)c3)sc2c1 [A11, CS(=O)(=O)C1=CC2=C(C=C1)N=C(S2)NC(=O)NC3=CC(=C(C=C3)Cl)Cl] — lower, 4.91%
- O=C(CC(c1cccc(Cl)c1)c1cn(Cc2ccc(F)cc2)c2ccccc12)NCC1COc2ccccc2O1 (stereo not drawn) [A7, FC(C=C1)=CC=C1CN2C=C(C(CC(NCC3COC(C=CC=C4)=C4O3)=O)C5=CC(Cl)=CC=C5)C6=CC=CC=C62] — higher, 58%
- CCOc1ccc(C(CC(=O)NCCc2ccccn2)c2cn(Cc3ccc(OC)cc3)c3ccccc23)cc1 (stereo not drawn) [B15, CCOC1=CC=C(C=C1)C(CC(=O)NCCC2=CC=CC=N2)C3=CN(C4=CC=CC=C43)CC5=CC=C(C=C5)OC] — higher, 20.5%
- O=C(CC(c1ccc(F)cc1)c1cn(Cc2ccccc2)c2ccccc12)NC1CC1 (stereo not drawn) [B8, C1CC1NC(=O)CC(C2=CC=C(C=C2)F)C3=CN(C4=CC=CC=C43)CC5=CC=CC=C5] — higher, 13.6%
- COc1cc(OC)cc(C(CC(=O)NCCc2ccccn2)c2cn(Cc3ccccc3)c3ccccc23)c1 (stereo not drawn) [B22, COC1=CC(=CC(=C1)C(CC(=O)NCCC2=CC=CC=N2)C3=CN(C4=CC=CC=C43)CC5=CC=CC=C5)OC] — higher, 45%
- Cc1cccc(C(CC(=O)NCCc2ccccc2)c2cn(Cc3ccc(F)cc3)c3ccccc23)c1 (stereo not drawn) [B5, CC1=CC(=CC=C1)C(CC(=O)NCCC2=CC=CC=C2)C3=CN(C4=CC=CC=C43)CC5=CC=C(C=C5)F] — lower, 2.93%
- O=C(CC(c1cccc(OCc2ccccc2)c1)c1cn(Cc2ccc(F)cc2)c2ccccc12)NCCc1ccccc1 (stereo not drawn) [A3, C1=CC=C(C=C1)CCNC(=O)CC(C2=CC(=CC=C2)OCC3=CC=CC=C3)C4=CN(C5=CC=CC=C54)CC6=CC=C(C=C6)F] — lower, 9.09%
